# Results from patent US20120053122A1, “METHOD FOR THE PROPHYLAXIS OR TREATMENT OF FLUSHING” (priority 2009, published 2012).
# Like-named read-outs stand apart in the source and are kept apart here. Square brackets hold non-standard residues; d marks the D form. Peptide text beside a SMILES is read from it. dPhe(4-Cl) = N[C@H](Cc1ccc(Cl)cc1)C(=O)O; d2Nal = N[C@H](Cc1ccc2ccccc2c1)C(=O)O; dCit = NC(=O)NCCC[C@@H](N)C(=O)O; d3Pal = N[C@H](Cc1cccnc1)C(=O)O
# Legend:
# PMP flushing [1] = conditions: in vivo; cited from earlier work
# PMP flushing [2] = system: PMP flushing
# Method: (§1) Three women who were referred for treatment of severe PMP flushing were included in the pilot study, after signing an informed consent. All three had frequent and severe flushing, during daytime as well as during the night. Sleep was often disturbed by flushes and sweat attacks, often forcing a change of clothes and/or bed linen. Physical examination in these patients was unremarkable and other causes of flushing were excluded. Thyroid function was normal, 24 hour urinary hydroxy-indol-acetic acid and catecholamines were within the reference range, serum tryptase was normal, and none used any medication known to induce flushing.
# PMP flushing [3] = experiment: Short-term in-hospital response: flush diary (frequency, duration, severity, sweating); assay type: in vivo, women
# Method: as §1
# (§2) To avoid intermittent and variable interference of external factors as much as possible, and to guarantee a constant ambient temperature all subjects were hospitalized for further study. They remained ambulatory during that period. They were instructed to record the following flush characteristics in a diary: time of onset, duration in minutes, flush severity on a scale of 0-10, and the degree of associated sweat attacks: 0=no sweating; 1=mild sweating, i.e. only moist skin, no visible sweat drops; 2=moderate sweating, i.e. visible sweat drops; 3=severe sweating, i.e. totally wet, change of clothes necessary. Blood samples for measurement of serum LH, FSH, estradiol, SHBG and albumin were taken each day at 08.00 h and 20.00 h.
# [4] = system: serum LH, FSH, estradiol, SHBG and albumin; experiment: Short-term in-hospital response: serum LH, FSH, estradiol, SHBG and albumin; assay type: in vivo, women
# Description: as §2, with “h. LH, FSH and estradiol were measured by electrochemiluminescene immunoassays (Roche Diagnostics, Mannheim, Germany). Normal ranges in PMP women: LH>10 U/L, FSH>30 U/L, estradiol<100 nmol/L. SHBG was measured by chemilumiescent enzyme immunoassay (DPC, Los Angeles, Calif., USA, normal range in PMP women: 18-144 nmol/L)).” for “h.”
# PMP flushing [5] = experiment: Long-term treatment, outpatient setting: flush recording; assay type: in vivo, women
# Description: To avoid intermittent and variable interference of external factors as much as possible, and to guarantee a constant ambient temperature all subjects were hospitalized for further study. They remained ambulatory during that period. They were instructed to record the following flush characteristics in a diary: time of onset, duration in minutes, flush severity on a scale of 0-10, and the degree of associated sweat attacks: 0=no sweating; 1=mild sweating, i.e. only moist skin, no visible sweat drops; 2=moderate sweating, i.e. visible sweat drops; 3=severe sweating, i.e. totally wet, change of clothes necessary. Blood samples for measurement of serum LH, FSH, estradiol, SHBG and albumin were taken each day at 08.00 h and 20.00 h. To evaluate whether responsiveness was maintained in the long run, Cetrorelix treatment was studied for a prolonged period in an outpatient setting. Cetrorelix was started after a baseline observation period of 3-6 days. In the first two patients the starting dose was of 250 μg once a day, injected at about 8.30-9.00 h, just after the morning blood sampling. In the third patient the starting dose was 500 μg once a day. Blood was sampled only in the morning, between 8.00 en 9.00 h, every day during the first 4 days, thereafter every 3 days for a brief period, and later on once a week.
# serum LH and FSH = experiment: Long-term treatment, outpatient setting: serum LH and FSH; assay type: in vivo, women
# Method: LH, FSH and estradiol were measured by electrochemiluminescene immunoassays (Roche Diagnostics, Mannheim, Germany). Normal ranges in PMP women: LH>10 U/L, FSH>30 U/L, estradiol<100 nmol/L. SHBG was measured by chemilumiescent enzyme immunoassay (DPC, Los Angeles, Calif., USA, normal range in PMP women: 18-144 nmol/L)). To evaluate whether responsiveness was maintained in the long run, Cetrorelix treatment was studied for a prolonged period in an outpatient setting. Cetrorelix was started after a baseline observation period of 3-6 days. In the first two patients the starting dose was of 250 μg once a day, injected at about 8.30-9.00 h, just after the morning blood sampling. In the third patient the starting dose was 500 μg once a day. Blood was sampled only in the morning, between 8.00 en 9.00 h, every day during the first 4 days, thereafter every 3 days for a brief period, and later on once a week.
# breast cancer = breast cancer survivors; cited from earlier work
# [6] = Patient 1, 250 μg once a day for five days
# [7] = Patient 1, 250 μg once a day, within 24 hours
# [8] = Patient 2, 250 μg once a day, 4th day of treatment
# [9] = Patient 3, 250 μg once a day, after the first 5 days
# [10] = Patient 3, 250 μg once a day at 08.30 h
# [11] = Patient 1, discontinued after 4 months
# [12] = Patient 1, outpatient, 250 μg once a day, after two weeks
# [13] = Patient 1, outpatient, 250 μg once a day, if flushes occurred
# [14] = Patient 2, outpatient, 250 μg once a day, over the following weeks
# [15] = Patient 2, outpatient, 250 μg twice a day after the third month
# [16] = Patient 2, outpatient, 250 μg twice a day, eventually
# [17] = Patient 1, outpatient, 250 μg once a day
# [18] = Patient 3, outpatient, 500 μg once a day at 20.00 h, first 4 weeks
compound,measurement,setting,value
Fc1ccc([C@@H]2CCNC[C@H]2COc2ccc3c(c2)OCO3)cc1 [paroxetine],Effectiveness against PMP flushing relative to placebo treatment,PMP flushing [1],about twice as effective as placebo treatment
Clc1cccc(Cl)c1N=C1NCCN1 [Clonidine],Effect on flushing,"PMP flushing [2]; Patient 1, up to 75 μg twice a day",no beneficial effect
same,Effect on flushing,"PMP flushing [2]; Patient 2, 50 μg twice a day",no beneficial effect
same,Effect on flushing,"PMP flushing [2]; Patient 3, 75 μg twice a day",no effect whatsoever
same,Benefit on flushing,"PMP flushing [2]; all three patients, previous use",without experiencing a significant benefit
CC(=O)N[C@H](Cc1ccc2ccccc2c1)C(=O)N[C@H](Cc1ccc(Cl)cc1)C(=O)N[C@H](Cc1cccnc1)C(=O)N[C@@H](CO)C(=O)N[C@@H](Cc1ccc(O)cc1)C(=O)N[C@H](CCCNC(N)=O)C(=O)N[C@@H](CC(C)C)C(=O)N[C@@H](CCCNC(=N)N)C(=O)N1CCC[C@H]1C(=O)N[C@H](C)C(N)=O [Cetrorelix] (Ac-[d2Nal][dPhe(4-Cl)][d3Pal]SY[dCit]LRP[dA]-NH2),Daytime flush duration,PMP flushing [3]; [6],did not change appreciably
same,Nighttime flush duration,PMP flushing [3]; [6],tended to decrease
same,Flush severity,"PMP flushing [3]; Patient 1, 250 μg once a day for five days, in particular during daytime",weak trend to decrease
same,Decrease in daytime flush frequency,PMP flushing [3]; [7],60-70%
same,Decrease in nighttime flushing,PMP flushing [3]; [7],60-70%
same,Decrease in total flush frequency,PMP flushing [3]; [7],60-70%
same,Time for flush frequency to rise again to pre-treatment levels after discontinuation,"PMP flushing [3]; Patient 1, short-term",≤ 48 h
same,Daytime flush duration,"PMP flushing [3]; Patient 2, 250 μg once a day",tended to decrease slightly
same,Daytime flush severity,"PMP flushing [3]; Patient 2, 250 μg once a day",did not change significantly
same,Flush sweating,"PMP flushing [3]; Patient 2, 250 μg once a day",did not change significantly
same,Change in daytime flush frequency,PMP flushing [3]; [8],−80%
same,Daytime flush frequency,PMP flushing [3]; [8],4 flushes per day
same,Nighttime flushing,"PMP flushing [3]; Patient 2, 250 μg once a day, after the first night",completely disappeared
same,Change in nighttime flushing,"PMP flushing [3]; Patient 2, 250 μg once a day, first night of treatment",−80%
same,Nighttime flushing,"PMP flushing [3]; Patient 2, 250 μg once a day, first night of treatment, from 5",1
same,Change in daytime flush frequency,"PMP flushing [3]; Patient 2, 250 μg once a day, within one day",−60%
same,Daytime flush frequency,"PMP flushing [3]; Patient 2, 250 μg once a day, within one day, from 20",8
same,Flush frequency after discontinuation,"PMP flushing [3]; Patient 2, within the two days after discontinuation",did not reach pre-treatment levels
same,Change in daytime flushes,PMP flushing [3]; [9],−25%
same,Change in total flushes,PMP flushing [3]; [9],−25%
same,Nighttime flushing,PMP flushing [3]; [9],did not change significantly
same,Nighttime flushing,"PMP flushing [3]; Patient 3, 250 μg twice a day",started to decrease
same,Decrease in total daily flush frequency,"PMP flushing [3]; Patient 3, after 250 μg once then twice a day, one day after discontinuation",80%
same,Flush frequency after discontinuation,"PMP flushing [3]; Patient 3, six days after discontinuation",still markedly lower than before treatment
same,Time at which FSH reached its nadir,"[4]; Patient 1, 250 μg once a day",3 days
same,Serum SHBG level,[4]; [6],did not change
same,Serum albumin level,[4]; [6],did not change
same,Serum estradiol level,[4]; [6],did not change
same,Serum FSH,"[4]; Patient 1, 250 μg once a day, in 3 days, from about 90",~60 U/L
same,Serum LH level,"[4]; Patient 1, 250 μg once a day, within 12 hours, from about 22",~10 U/L
same,Time for serum FSH to rise again to pre-treatment levels after discontinuation,"[4]; Patient 1, short-term",≤ 48 h
same,Time for serum LH to rise again to pre-treatment levels after discontinuation,"[4]; Patient 1, short-term",≤ 48 h
same,Serum FSH level change,"[4]; Patient 2, 250 μg once a day",gradual decrease
same,Time at which FSH reached its nadir,"[4]; Patient 2, 250 μg once a day",5 days
same,Serum LH change,"[4]; Patient 2, 250 μg once a day, within 12 hours",abrupt decrease
same,Time for LH to return to pre-treatment levels after discontinuation,"[4]; Patient 2, short-term",≤ 48 h
same,FSH after discontinuation,"[4]; Patient 2, short-term, compared with LH",rose somewhat more slowly
same,FSH change,[4]; [10],more gradually
same,LH change,[4]; [10],decreased abruptly
same,FSH after discontinuation of treatment,"[4]; Patient 3, short-term",rose rapidly
same,LH after discontinuation of treatment,"[4]; Patient 3, short-term",rose rapidly
same,Time after discontinuation at which flush frequency started to rise,PMP flushing [5]; [11],6 weeks
same,Daytime flush frequency,PMP flushing [5]; [12],close to zero
same,Nighttime flush frequency,PMP flushing [5]; [12],close to zero
same,Flush severity (scale of 0-10),"PMP flushing [5]; Patient 1, outpatient, 250 μg once a day, from about 8, day as well as night",~4
same,Degree of perspiration,PMP flushing [5]; [13],unchanged
same,Flush duration,PMP flushing [5]; [13],unchanged
same,Daytime flush duration,PMP flushing [5]; [14],gradually decreased
same,Daytime flush perspiration,PMP flushing [5]; [14],gradually decreased
same,Daytime flush severity,PMP flushing [5]; [14],gradually decreased
same,"Daytime flushing, level at which it levelled off","PMP flushing [5]; Patient 2, outpatient, 250 μg once a day, up to third month",10 flushes/day
same,Daytime flush frequency,"PMP flushing [5]; Patient 2, outpatient, 250 μg once a day, within the first week, from about 18",~8 flushes/day
same,Nighttime flushing,"PMP flushing [5]; Patient 2, outpatient, 250 μg once a day, within two days",disappeared completely
same,Flushing,PMP flushing [5]; [15],further decreased
same,Total daily flushing,PMP flushing [5]; [16],6 flushes/day
same,Total decrease in total daily flushing,PMP flushing [5]; [16],about 75%
same,Decline of flush frequency,"PMP flushing [5]; Patient 3, outpatient, 500 μg once a day, P<0.007",79.3%
same,Flush frequency (mean±standard error of the mean),"PMP flushing [5]; Patient 3, outpatient, 500 μg once a day, from 9.67±1.12, P<0.007",2.00±0.44
same,Time for FSH levels to rise to pretreatment levels after discontinuation,serum LH and FSH; [11],≤ 3 days
same,Time for LH levels to rise to pretreatment levels after discontinuation,serum LH and FSH; [11],≤ 3 days
same,Serum FSH,serum LH and FSH; [17],decreased to levels similar to those observed during the in-hospital setting
same,Serum LH,serum LH and FSH; [17],decreased to levels similar to those observed during the in-hospital setting
same,FSH,"serum LH and FSH; Patient 2, outpatient, 250 μg once a day, stabilized level",around 15 U/L
same,Serum LH,"serum LH and FSH; Patient 2, outpatient, 250 μg once a day, within a week",decreased to premenopausal levels
same,Serum FSH level,serum LH and FSH; [15],further decreased
same,Serum LH level,serum LH and FSH; [15],further decreased
same,Serum FSH nadir,serum LH and FSH; [18],25 U/L
same,Serum LH nadir,serum LH and FSH; [18],8 U/L
COc1ccc(C(CN(C)C)C2(O)CCCCC2)cc1 (stereo not drawn) [venlafaxine],Effectiveness against PMP flushing relative to placebo treatment,PMP flushing [1],about twice as effective as placebo treatment
estrogen,Effectiveness against PMP flushing relative to placebo treatment,PMP flushing [1],four times as effective
same,Reduction of PMP flush frequency,PMP flushing [1],80-90%
same,Increased risk of a new primary or a breast cancer recurrence,breast cancer,three-fold
NCC1(CC(=O)O)CCCCC1 [gabapentin],Effectiveness against PMP flushing relative to placebo treatment,PMP flushing [1],about twice as effective as placebo treatment
